In the experiment the test system is E-cadherin expression in SW620 cells. Description: In-cell Western (ICW) cell-based functional assay of E-cadherin expression in SW620 cells. The following applies: Homo sapiens, SW-620; for fold induction at 10 µM: change in expression level of E-cadherin in response to 10 μM compound, SW620 cells, 24 hours. The protocol:
SW620 and H520 cells (5×10^4/100 μL) were seeded in a 96-well plate prior to treatment. Cells were treated with 10 μM concentration of synthesized compound in quadruplicate for 24 hours in RPMI 1640 supplemented medium and 100 μg/mL penicillin-streptomycin. The cells were then fixed with 100% methanol for 20 minutes at 4° C. The wells were then washed 2 times with PBS, permeabilized in 2% bovine serum albumin (BSA) and 0.2% TritonX-100 in PBS for 30 minutes at room temperature with gentle agitation, and blocked in LI-COR blocking buffer for 30 minutes at room temperature with gentle agitation. The cells were then incubated with the following primary antibodies: anti-E-Cadherin (1:500) and anti-α-Tubulin (1:1000) diluted in blocking buffer (1:1 dilution in PBS) for 2 hours at room temperature with gentle agitation. The cells were washed 4 times in PBS-T for 5 minutes each, and then incubated with the following secondary antibodies conjugated to a fluorescent entity: IRDye 800-conjugated goat anti-rabbit IgG (1:1000) and IRDye-700-conjugated goat anti-mouse IgG (1:2000) in blocking buffer (1:1 dilution in PBS) with gentle agitation for 1 h at room temperature. The cells were washed 4 times in PBS-T for 5 minutes each followed by a single wash with PBS. All liquid was removed from the wells and the plates were visualized and analyzed on the Odyssey IR imaging system (LI-COR Biosciences).
The assay was further optimized in the following manner. The cells were washed 2 times with PBS, fixed in 100% methanol at room temperature for 15 minutes, and again washed 2 times with PBS. The cells were then incubated with the following primary antibodies: anti-E-Cadherin (1:200) and anti-α-Tubulin (1:2000) diluted in ice cold 2% bovine serum albumin (BSA) and 0.2% TritonX-100 in PBS for 1 hour at room temperature with gentle agitation. The cells were washed 2 times in PBS and then incubated with the following secondary antibodies conjugated to a fluorescent entity: Licor 800-conjugated goat anti-rabbit IgG (1:2000) and IRDye-700-conjugated goat anti-mouse IgG (1:2000) in ice cold 2% BSA and 0.2% TritonX-100 in PBS with gentle agitation for 45 minutes at room temperature. The wells were washed 2 times in PBS, dried, and analyzed as previously mentioned.
N-(3-(Arylamino)alkyl)-5-arylisoxazole-3-carboxamide analogs were synthesized as described above. Changes in expression level of E-cadherin in response to 10 μM compound in SW620 cells was determined in the cell-based functional assay as described above, and the data are shown in Table II. The compound number corresponds to the compound numbers used in Table I.
EC50 of inducement of E-cadherin expression in SW620 cells was determined in the cell-based functional assay as described above, and the data are shown in Table III. The compound number corresponds to the compound numbers used in Table I.

As usually defined, the fold induction is the signal under treatment as a multiple of the control signal. `Cc1ncc(CN(CCCNC(=O)c2cc(-c3ccccc3)[nH]n2)Cc2cnc(C)o2)o1` [Compound 25, N-(3-(bis((2-methyloxazol-5-yl)methyl)amino)propyl)-5-phenyl-1H-pyrazole-3-carboxamide]: the fold induction at 10 µM worked out at 1.54.
As for `O=C(NCCCNCc1c[nH]c2ccccc12)c1cc(-c2ccccc2)[nH]n1` [Compound 26, N-(3-(((1H-indol-3-yl)methyl)amino)propyl)-5-phenyl-1H-pyrazole-3-carboxamide], the fold induction at 10 µM was determined as 1.64.
The same measure, in the same setting: the figure for `O=C(NCCCNCc1ccccn1)c1cc(-c2ccccc2)on1` [Compound 5, 5-phenyl-N-(3-((pyridin-2-ylmethyl)amino)propyl)isoxazole-3-carboxamide] is 0.71.
As a reminder, the EC50 is the concentration at which the effect is half-maximal. Higher therefore signals a need for much substance. For `O=C(NCCCNc1nccc(Cl)n1)c1cc(-c2ccccc2)[nH]n1` [Compound 38, N-(3-((4-chloropyrimidin-2-yl)amino)propyl)-5-phenyl-1H-pyrazole-3-carboxamide], the fold induction at 10 µM came out at 7.36. Under “inducement of E-cadherin expression in SW620 cells”, this compound gave an EC50 of 22.9 µM.

For the origin of these results see US9505729B2, “Isoxazole analogs as mediators of transcriptional induction of E-cadherin” (Vanderbilt University, priority 2014, dated 2016).
